Test results: publication PMC11610143, “Characterization of dipyridamole as a novel ferroptosis inhibitor and its therapeutic potential in acute respiratory distress syndrome management” (Theranostics, 2024)

Legend:
[1] = molecular target: T1, human SOD1 protein (#HY-P71048, MCE) (Homo sapiens, UniProt P00441); test: SPR (Biacore T200, CM5 chip, SOD1 immobilised); type: binding
T1 construct: commercial human SOD1 protein (MCE); amine-coupled to CM5 chip

SOD1 (A549 cells) = molecular target: T2, SOD1 (A549 cells) (Homo sapiens, UniProt P00441); test: CETSA, western blot; type: biochemical; details: 10 μM DIPY, 30 min; A549 cells pretreated with RSL3 5 μM for 8 h; 45-72 °C
T2 construct: endogenous full-length SOD1 in A549 cells, read by western blot
T2 sequence (P00441 2-154): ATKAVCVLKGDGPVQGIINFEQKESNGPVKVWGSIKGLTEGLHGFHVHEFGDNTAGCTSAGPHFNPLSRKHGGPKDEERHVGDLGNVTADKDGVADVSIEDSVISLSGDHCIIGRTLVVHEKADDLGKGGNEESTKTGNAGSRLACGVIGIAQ

T1 sequence (P00441 2-154, one chain of several): as the sequence (P00441 2-154) above

Kd [1]: 8.83 µM
Compound: OCCN(CCO)c1nc(N2CCCCC2)c2nc(N(CCO)CCO)nc(N3CCCCC3)c2n1 [Dipyridamole]
thermal stability (CETSA) (SOD1 (A549 cells)): DIPY elevated the thermal stability of SOD1 compared with the control group
